In patent US8598118B2, “Hepatocyte growth factor mimics as therapeutic agents” (Washington State University, priority 2011, dated 2013):
Where a SMILES comes first, the peptide text is derived from it. [ ]: non-standard residue; d: D form. The star is where a group is joined. dNle = CCCC[C@@H](N)C(=O)O; Hexanoyl = CCCCCC(=O)*; Ahx = NCCCCCC(=O)O

Columns and labels:
[1] = Stability of Dihexa in the blood (not shown); type: in vitro ADME
Met = assay: Inhibition of HGF-dependent Met phosphorylation in HEK293 cells; type: cell-based, human; settings: 10 min
Method: HEK293 cells were seeded in 6 well tissue culture plates and grown to 95% confluency in DMEM containing 10% FBS. The cells were serum deprived for 24 h prior to the treatment to reduce the basal levels of phospho-Met. Following serum starvation, cocktails comprised of vehicle and HGF with/without 6-AH analogs were prepared and pre-incubated for 30 min at room temperature. The cocktail was then added to the cells for 10 min to stimulate the Met receptor and downstream proteins. Cells were harvested using RIPA lysis buffer (Millipore; Billerica, Mass.) fortified with phosphatase inhibitor cocktails 1 and 2 (Sigma-Aldrich; St. Louis, Mo.). The lysate was clarified by centrifugation at 15,000 nx g for 15 min, protein concentrations were determined using the BCA total protein assay (Pierce), and then appropriate volumes of the lysates were diluted with 2× reducing Laemmli buffer and heated for ten min at 95° C. Samples containing identical amounts of protein were resolved using SDS-PAGE (Criterion, BioRad Laboratories), transferred to nitrocellulose, and blocked in Tris-buffered saline (TBS) containing 5% milk for 1 h at room temperature. The phospho-Met antibody were added to the blocking buffer at a final concentration of 1:1000 and incubated at 4° C. overnight with gentle agitation. The membranes were then washed several times with water and TBS ([…], 0.05% Tween-20), a 1:5000 dilution of horseradish-peroxidase conjugated goat anti-rabbit antiserum was added, and the membranes further incubated for 1 h at room temperature. Proteins were visualized using the Supersignal West Pico Chemiluminescent Substrate system (Pierce, Fenton, Mo.) and molecular weights determined by comparison to protein ladders (BenchMark, Invitrogen, and Kaleidoscope, BioRad). Film images were digitized and analyzed using a UVP phosphoimager.

MDCK cells [2] = assay: HGF-dependent MDCK cell proliferation (MTT); type: cell-based, canine; settings: analog 10^−10M, 4 days
Method: 5000 MDCK cells were seeded into the wells of a 96 well plates in 10% FBS DMEM. To induce cellular quiescence, the cells were serum deprived for 24 h prior to initiating the treatments. Following serum starvation, 10 ng/ml HGF alone and with various concentrations of 6-AH analogs or PBS vehicle were added to the media. The cells were allowed to grow under these conditions for 4 days with a daily addition of 6-AH analogs. On the fourth day, 1 mg/ml of […] (MTT, Sigma-Aldrich) prepared in PBS was added to the cells and incubated for 4 h. Dimethyl sulfoxide diluted in a 0.01M glycine buffer was added to solubilize the cell membranes and the absorbance of reduced MTT in the buffer was quantitated at 590 nm using a plate reader (Biotek Synergy 2, Winooski, Vt.). HGF-dependent proliferation was determined by subtracting the basal proliferation (in the absence of HGF) from total proliferation rates in groups containing HGF.

MDCK cells [3] = assay: Inhibition of HGF-dependent scattering in MDCK cells; type: cell-based, canine; settings: 20 ng/ml HGF, 48 h
Method: (§1) MDCK cells were grown to 100% confluency on the coverslips in six-well plates and washed twice with PBS. The confluent coverslips were then aseptically transferred to new six well plates containing 900 μl serum free DMEM. Norleual, Hinge peptide, and/or HGF (20 ng/ml) were added to appropriate wells. Control wells received PBS vehicle. Plates were incubated at 37° C. with 5% CO2 for 48 hours. Media was removed and cells were fixed with methanol. Cells were stained with Diff-Quik Wright-Giemsa (Dade-Behring, Newark, Del.) and digital images were taken. Coverslips were removed with forceps and more digital images were captured. Pixel quantification of images was achieved using Image J and statistics were performed using Prism 5 and InStat v.3.05.
as §1, with “h.” for “hours.”, “v.3.05 (GraphPad; San Diego, Calif.).” for “v.3.05.”

[4] = test system: B16-F10 murine melanoma cells; assay: B16-F10 melanoma lung colony formation; type: in vivo; settings: daily IP 10 μg/kg/day and 100 μg/kg/day, 14 days, C57BL/6 mice
Method: Six to eight month old C57BL/6 mice were injected with 400,000 B16-F10 cells in 200 μl PBS by tail vein injection and subsequently received daily intraperitoneal injections of either D-Nle-X-Cys-NH—(CH2)5—CONH2 (10 μg/kg and 100 μg/kg) or a PBS vehicle control. Two weeks later, mice were anesthetized and lungs were perfused with PBS and removed. Photos were taken and lungs were solubilized in 1% Triton x-100, 20 mM Tris, 0.15 M NaCl, 2 mM EDTA, and 0.02% sodium azide. Samples were disrupted by sonication (Mixonix, Farmingdale, N.Y.) and spun. The supernatant was transferred to a 96 well plate and melanin absorbance at 410 nm was measured using a plate reader.

[5] = Blood stability studies (heparinized rat blood, 37° C.); type: in vitro ADME; settings: heparinized whole blood, single phase exponential decay, read-out: stability t1/2 in blood
[6] = rat, iv, 24 mg/kg
in vivo = settings: male, Sprague-Dawley, rat, iv, 24 mg/kg

| half-life [5] [h] | t½ (in vivo elimination half-life) ([6]; male, Sprague-Dawley) [h] | KE ([6]; in vivo) [min⁻¹] | AUC(0-inf) (in vivo) [ng·h/mL] | Vd (in vivo) [L/kg] | clearance (in vivo) [mL/min/kg] | half-life (in vivo) [h] | Compound | stable in the blood [1] | inhibition of HGF-dependent Met auto-phosphorylation (Met) | inhibition of HGF-dependent MDCK cell proliferation (MDCK cells [2]) | inhibition of HGF-dependent MDCK cell scattering (MDCK cells [3]) | inhibition of B16-F10 melanoma lung colonization [4] | inhibition of B16-F10 melanoma lung colonization ([4]; listed as D-Nle-Cys-Ile-(6)-amino-hexanoic amide) |
| --- | --- | --- | --- | --- | --- | --- | --- | --- | --- | --- | --- | --- | --- |
| – | – | – | – | – | – | – | CCCCCC(=O)N[C@@H](Cc1ccc(O)cc1)C(=O)N[C@H](C(=O)NCCCCCC(N)=O)[C@@H](C)CC [Dihexa, N-hexanoic-Tyr-Ile-(6)-aminohexanoic amide] (Hexanoyl-Tyr-Ile-[Ahx]-NH2) | over 5 hours | – | – | – | – | – |
| – | – | – | – | – | – | – | CCCC[C@@H](N)C(=O)N[C@@H](CS)C(=O)N[C@H](C(=O)NCCCCCC(N)=O)[C@@H](C)CC [D-Nle-Cys-Ile-NH—(CH2)5—CONH2] (H-[dNle]CI[Ahx]-NH2) | – | able to block Met auto-phosphorylation | marked inhibitory activity | different from the HGF alone group but not different from the control group | radically prevented lung colonization | obvious reduction in melanoma colonies |
| 1.33 | 16.867 ± 6.523 | 0.001 ± 0.0002 | 11500 | 104 ± 65 | 58.3 ± 15.6 | 16.9 | CCCC[C@@H](N)C(=O)N[C@@H](Cc1ccc(O)cc1)C(=O)N[C@H](C(=O)NCCCCCC(N)=O)[C@@H](C)CC (H-[dNle]YI[Ahx]-NH2) | – | able to block Met auto-phosphorylation | marked inhibitory activity | different from the HGF alone group but not different from the control group | – | – |
